Measurements published in US10800741B2 (ANCUREALL PHARMACEUTICAL (SHANGHAI) CO., LTD., priority 2017, dated 2020).

Tests used:
MDA-MB-453 = assay: In vitro growth inhibition of MDA-MB-453 cells; assay type: cell-based; details: Homo sapiens, PI3KCA H1047R, FGFR4+++/Y367C
Description: (§1) Adherent cells were digested with 0.25% trypsin-EDTA (Gibco). Suspension culture cells were collected by centrifugation (1700 rpm, 3 minutes). The supernatant was discarded and the cells were counted. According to each cell growth cycle, different concentrations of cells were prepared (5˜10×10^4 cells per ml), and inoculated to 96-well plates (Corning), with 100 μl per well, and incubated overnight at 37° C., 5% CO2. The next day, the test compound was added to the cultured cells (2 wells in parallel). The final concentration of the solvent was less than 1/1,000. The cells were further cultured for 3 to 5 days and assayed by MTT.
(§2) The MTT test reagent was a Dojindo CCK8 kit and the Microplate Reader was a THERMO […] FC instrument.
(§3) The adherent cells were taken out from the cell culture medium, and immediately added to a freshly prepared complete medium containing 10% CCK8 (5% FBS), 100 ul per hole. The suspended cells were directly added to a CCK8 reagent until reaching a final concentration of 10% and cultured for 1 to 4 hours. When a dark yellow color could be observed in the solvent control wells, the absorbance value at OD450 nm was measured and the cell growth rate was calculated according to the following formula: Cell Growth Rate (%)=100×(T−T0)/(C−T0)
(§4) T=optical density of drug-treated cell wells−optical density of blank control wells; T0=optical density of cell wells before drug treatment−optical density of blank control wells; C=optical density of solvent control wells−optical density of blank control wells. […] The experiments were repeated 1 to 3 times and a statistical analysis of data was conducted.
(§5) Mutations in the FGFR1-4 gene often occur in different types of cancer patients. In order to test the growth inhibition activity of the present compound against tumor cells expressing different FGFR variants, tumor cell lines expressing representative FGFR1-4 were selected for further determining the activity of compounds 25, 66, 38 and 95 of the present invention. BGJ398, a selective inhibitor of FGFR1-4, was used as the control compound. The specific test method is the same as test example 1.

MFM-223 = assay: In vitro growth inhibition of MFM-223 cells; assay type: cell-based; details: Homo sapiens, PI3KCA H1047R, FGFR1 amp, FGFR2 amp
Description: as §1, §2, §3, §4, §5

Hep3B2 (FGFR3/4+++) = assay: In vitro growth inhibition of Hep3B2 tumor cells (MTT/CCK8); assay type: cell-based, Human; details: Homo sapiens, Hep3B; in vitro growth inhibition (or induction of apoptosis), cells cultured 3 to 5 days, MTT (CCK8); read-out: IC50 Hep3B2 (FGFR3/4+++)
H1703 (PDGFRa amp) = assay: In vitro growth inhibition of H1703 tumor cells (MTT/CCK8); assay type: cell-based, Human; details: Homo sapiens, NCI-H1703; in vitro growth inhibition (or induction of apoptosis), cells cultured 3 to 5 days, MTT (CCK8); read-out: IC50 H1703 (PDGFRa amp)
JIMT-1 = assay: In vitro growth inhibition of JIMT-1 cells; assay type: cell-based; details: Homo sapiens, FGFR1 amp, HER2 amp, PI3KCA C420R
Description: as §1, §2, §3, §4, §5

Huh-7 = assay: In vitro growth inhibition of Huh-7 cells; assay type: cell-based; details: Homo sapiens, FGFR3+++, FGFR4 +++
Description: as §1, §2, §3, §4, §5

AN3-CA = assay: In vitro growth inhibition of AN3-CA cells; assay type: cell-based; details: Homo sapiens, FGFR2 mutant
Description: as §1, §2, §3, §4, §5

H1581 (FGFR1 amp) = assay: In vitro growth inhibition of H1581 tumor cells (MTT/CCK8); assay type: cell-based, Human; details: Homo sapiens, NCI-H1581; in vitro growth inhibition (or induction of apoptosis), cells cultured 3 to 5 days, MTT (CCK8); read-out: IC50 H1581 (FGFR1 amp)
DMS114 = assay: In vitro growth inhibition of DMS114 cells; assay type: cell-based; details: Homo sapiens, DMS-114, FGFR1 amp
Description: as §1, §2, §3, §4, §5

RT112/84 = assay: In vitro growth inhibition of RT112/84 cells; assay type: cell-based; details: Homo sapiens, FGFR3-TACC3
Description: as §1, §2, §3, §4, §5

SNU-16 = assay: In vitro growth inhibition of SNU-16 cells; assay type: cell-based; details: Homo sapiens, FGFR2 amp
Description: as §1, §2, §3, §4, §5

MOLM-13 (FLT3-ITD) = assay: In vitro growth inhibition of MOLM-13 tumor cells (MTT/CCK8); assay type: cell-based, Human; details: Homo sapiens, MOLM-13; in vitro growth inhibition (or induction of apoptosis), cells cultured 3 to 5 days, MTT (CCK8); read-out: IC50 MOLM-13 (FLT3-ITD)
A375 = assay: In vitro growth inhibition of A375 cells; assay type: cell-based; details: Homo sapiens, A-375, BRAF V600E, FGFR2 mutant
Description: as §1, §2, §3, §4, §5

Cal-120 = assay: In vitro growth inhibition of Cal-120 cells; assay type: cell-based; details: Homo sapiens, FGFR1 amp
Description: as §1, §2, §3, §4, §5

Hep G2 = assay: In vitro growth inhibition of Hep G2 cells; assay type: cell-based; details: Homo sapiens, HepG2, FGFR3+++, FGFR4 +++
Description: as §1, §2, §3, §4, §5

JHH-7 = assay: In vitro growth inhibition of JHH-7 cells; assay type: cell-based; details: Homo sapiens, JHH7, FGFR3+++, FGFR4 +++
Description: as §1, §2, §3, §4, §5

KCL-22 (BCR-ABL) = assay: In vitro growth inhibition of KCL-22 tumor cells (MTT/CCK8); assay type: cell-based, Human; details: Homo sapiens, KCL-22; in vitro growth inhibition (or induction of apoptosis), cells cultured 3 to 5 days, MTT (CCK8); read-out: IC50 KCL-22 (BCR-ABL)
Karpas 299 (NPM-ALK) = assay: In vitro growth inhibition of Karpas 299 tumor cells (MTT/CCK8); assay type: cell-based, Human; details: Homo sapiens, KARPAS-299; in vitro growth inhibition (or induction of apoptosis), cells cultured 3 to 5 days, MTT (CCK8); read-out: IC50 Karpas 299 (NPM-ALK)
Kasumi-1 (KIT N822K) = assay: In vitro growth inhibition of Kasumi-1 tumor cells (MTT/CCK8); assay type: cell-based, Human; details: Homo sapiens, Kasumi 1; in vitro growth inhibition (or induction of apoptosis), cells cultured 3 to 5 days, MTT (CCK8); read-out: IC50 Kasumi-1 (KIT N822K)
PLC/PRF/5 = assay: In vitro growth inhibition of PLC/PRF/5 cells; assay type: cell-based; details: Homo sapiens, FGFR3+++, FGFR4 +++
Description: as §1, §2, §3, §4, §5

KATO III (FGFR2 amp) = assay: In vitro growth inhibition of KATO III tumor cells (MTT/CCK8); assay type: cell-based, Human; details: Homo sapiens, KATO III; in vitro growth inhibition (or induction of apoptosis), cells cultured 3 to 5 days, MTT (CCK8); read-out: IC50 KATO III (FGFR2 amp)
Jurkat = assay: In vitro growth inhibition of FLT3 wild-type normal expressing cells Jurkat; assay type: cell-based; details: Homo sapiens, cells normally expressing FLT3 wild-type
Description: as §1, §2, §3, §4
(§6) The present compounds which has a high growth inhibition activity on tumor cells positive expressing FLT3-ITD were selected for the determination of IC50 concentration on FLT3 wild tyoverexpressing cells RS4:11 and FLT3 wild-type normal expressing cells Jurkat. The specific test method is the same as that of test example 1.

RS4:11 = assay: In vitro growth inhibition of FLT3 wild type overexpressing cells RS4:11; assay type: cell-based; details: Homo sapiens, cells over expressing FLT3 wild-type
Description: as §1, §2, §3, §4, §6

HCT116 = assay: In vitro growth inhibition of PI3KCA amplified/mutant tumor cells HCT116; assay type: cell-based; details: Homo sapiens, HCT-116, read-out: IC50 growth inhibition
Description: as §1, with “Suspension” for “Adherent cells were digested with 0.25% trypsin-EDTA (Gibco). Suspension”
(§7) The adherent cells were taken out from the cell culture medium, and immediately added to a freshly prepared complete medium containing 10% CCK8 (5% FBS), 100 ul per hole. The suspended cells were directly added to a CCK8 reagent until reaching a final concentration of 10% and cultured for 1 to 4 hours.
as §4

HCC1954 = assay: In vitro growth inhibition of PI3KCA amplified/mutant tumor cells HCC1954; assay type: cell-based; details: Homo sapiens, HCC1954, read-out: IC50 growth inhibition
Description: as §1, with “Suspension” for “Adherent cells were digested with 0.25% trypsin-EDTA (Gibco). Suspension”
as §7, §4

AGS = assay: In vitro growth inhibition of PI3KCA amplified/mutant tumor cells AGS; assay type: cell-based; details: Homo sapiens, read-out: IC50 growth inhibition
Description: as §1, with “Suspension” for “Adherent cells were digested with 0.25% trypsin-EDTA (Gibco). Suspension”
as §7, §4

HGC-27 = assay: In vitro growth inhibition of PI3KCA amplified/mutant tumor cells HGC-27; assay type: cell-based; details: Homo sapiens, HGC-27, read-out: IC50 growth inhibition
Description: as §1, with “Suspension” for “Adherent cells were digested with 0.25% trypsin-EDTA (Gibco). Suspension”
as §7, §4

KYSE70 = assay: In vitro growth inhibition of PI3KCA amplified/mutant tumor cells KYSE70; assay type: cell-based; details: Homo sapiens, KYSE-70, read-out: IC50 growth inhibition
Description: as §1, with “Suspension” for “Adherent cells were digested with 0.25% trypsin-EDTA (Gibco). Suspension”
as §7, §4

SK-OV-3 = assay: In vitro growth inhibition of PI3KCA amplified/mutant tumor cells SK-OV-3; assay type: cell-based; details: Homo sapiens, SK-OV-3, read-out: IC50 growth inhibition
Description: as §1, with “Suspension” for “Adherent cells were digested with 0.25% trypsin-EDTA (Gibco). Suspension”
as §7, §4

SW48 = assay: In vitro growth inhibition of PI3KCA amplified/mutant tumor cells SW48; assay type: cell-based; details: Homo sapiens, SW48, read-out: IC50 growth inhibition
Description: as §1, with “Suspension” for “Adherent cells were digested with 0.25% trypsin-EDTA (Gibco). Suspension”
as §7, §4

A2780 = assay: In vitro growth inhibition of PI3KCA amplified/mutant tumor cells A2780; assay type: cell-based; details: Homo sapiens, A2780, read-out: IC50 growth inhibition
Description: as §1, with “Suspension” for “Adherent cells were digested with 0.25% trypsin-EDTA (Gibco). Suspension”
as §7, §4

NCI-H460 = assay: In vitro growth inhibition of PI3KCA amplified/mutant tumor cells NCI-H460; assay type: cell-based; details: Homo sapiens, NCI-H460, read-out: IC50 growth inhibition
Description: as §1, with “Suspension” for “Adherent cells were digested with 0.25% trypsin-EDTA (Gibco). Suspension”
as §7, §4

## COc1cc2nccc(Oc3ccc(NC(=O)Nc4cc(C(C)(C)C)n[nH]4)c(Cl)c3)c2cc1C(N)=O [Compound 25, 4-{4-[3-(5-tert-butyl-2H-pyrazol-3-yl)-ureido]-3-chloro-phenoxy}-7-methoxyquinolin-6-carboxamide]
MDA-MB-453
  IC50: 309 nM
MFM-223
  IC50: 21.6 nM
Hep3B2 (FGFR3/4+++)
  IC50: 14.2 nM
H1703 (PDGFRa amp)
  IC50: 13.5 nM
JIMT-1
  IC50: 467 nM
Huh-7
  IC50: 7.12 nM
AN3-CA
  IC50: 4.95 nM
H1581 (FGFR1 amp)
  IC50: 9.7 nM
DMS114
  IC50: 15.6 nM
RT112/84
  IC50: 31.5 nM
SNU-16
  IC50: 1.95 nM
MOLM-13 (FLT3-ITD)
  IC50: 19.1 nM
A375
  IC50: 129 nM
Cal-120
  IC50: 64.7 nM
Hep G2
  IC50: 127 nM
JHH-7
  IC50: 4.88 nM
KCL-22 (BCR-ABL)
  IC50: 16.4 nM
Karpas 299 (NPM-ALK)
  IC50: 600 nM
Kasumi-1 (KIT N822K)
  IC50: 44 nM
PLC/PRF/5
  IC50: 2.95 nM
KATO III (FGFR2 amp)
  IC50: 0.24 nM

## COc1cc2nccc(Oc3ccc(NC(=O)Nc4cc(C(C)(C)C)n[nH]4)cc3Cl)c2cc1C(N)=O [Compound 36, 4-{4-[3-(5-tert-butyl-2H-pyrazol-3-yl)-ureido]-2-chloro-phenoxy}-7-methoxyquinolin-6-carboxamide]
Jurkat
  IC50: 535 nM
RS4:11
  IC50: 750 nM
Hep3B2 (FGFR3/4+++)
  IC50: 78.9 nM
H1703 (PDGFRa amp)
  IC50: 227 nM
H1581 (FGFR1 amp)
  IC50: 65.7 nM
MOLM-13 (FLT3-ITD)
  IC50: < 0.05 nM
KCL-22 (BCR-ABL)
  IC50: 31.5 nM
Karpas 299 (NPM-ALK)
  IC50: 179 nM
Kasumi-1 (KIT N822K)
  IC50: 70.8 nM
KATO III (FGFR2 amp)
  IC50: 2.62 nM

## COc1c(OCCCN2CCOCC2)ccc2c1N=C(NC(=O)c1cnc(N)nc1)N1CCN=C21 [BAY 80-6946, reference compound]
HCT116
  IC50: 65.1 nM
HCC1954
  IC50: 6.8 nM
AGS
  IC50: 39.5 nM
HGC-27
  IC50: 17.3 nM
KYSE70
  IC50: 19.7 nM
SK-OV-3
  IC50: 10.2 nM
SW48
  IC50: 27.5 nM
A2780
  IC50: 9.67 nM
NCI-H460
  IC50: 30.4 nM
